The values below come from US20230374038A1, “MODULATORS OF CYSTIC FIBROSIS TRANSMEMBRANE CONDUCTANCE REGULATOR” (VERTEX PHARMACEUTICALS INCORPORATED, priority 2020, published 2023).

This test has as its target T1, CFTR (Homo sapiens, UniProt P13569, DEL508-508).
T1 construct: endogenous in cells; host or cells: primary human bronchial epithelial cells, F508del/MF genotype
The test is described as follows: HBE Assay: Ussing chamber assay of CFTR-mediated short-circuit currents in F508del/MF-HBE cells with 1 μM Ivacaftor. The settings on record: with 1 μM Ivacaftor, 20% human serum; for EC50 / HBE Max Activity: 18-24 hours; for HBE Activity at 10 μM: single fixed concentration of 10 μM. In kind it is cell-based. As for the experimental part:
Ussing chamber experiments were performed using human bronchial epithelial (HBE) cells derived from CF subjects heterozygous for F508del and a minimal function CFTR mutation (F508del/MF-HBE) and cultured as previously described (Neuberger T, Burton B, Clark H, Van Goor F Methods Mol Biol 2011:741:39-54). After four days the apical media was removed, and the cells were grown at an air liquid interface for >14 days prior to use.
(§1) To isolate the CFTR-mediated short-circuit (ISC) current, F508del/MF-HBE grown on Costar® Snapwell™ cell culture inserts were mounted in an Ussing chamber and the transepithelial ISC was measured under voltage-clamp recording conditions (Vhold=0 mV) at 37° C. The basolateral solution contained (in mM) 145 NaCl, 0.83 K2HIPO4, 3.3 KH2PO4, 1.2 MgCl2, 1.2 CaCl2), 10 Glucose, 10 HEPES (pH adjusted to 7.4 with NaOH) and the apical solution contained (in mM) 145 NaGluconate, 1.2 MgCl2, 1.2 CaCl2), 10 glucose, 10 HEPES (pH adjusted to 7.4 with NaOH) and 30 μM amiloride to block the epithelial sodium channel. Forskolin (20 μM) was added to the apical surface to activate CFTR, followed by apical addition of a CFTR inhibitor cocktail consisting of BPO, GlyH-101, and CFTR inhibitor 172 (each at 20 μM final assay concentration) to specifically isolate CFTR currents. The CFTR-mediated ISC (μA/cm^2) for each condition was determined from the peak forskolin response to the steady-state current following inhibition.
The activity of the CFTR corrector compounds on the CFTR-mediated ISC was determined in Ussing chamber studies as described above. The F508del/MF-HBE cell cultures were either incubated with the corrector compounds at a range of concentrations in combination with 1 μM Ivacaftor or were incubated with the corrector compounds at a single fixed concentration of 10 μM in combination with 1 μM Ivacaftor for 18-24 hours at 37° C. and in the presence of 20% human serum. The concentration of corrector compounds with 1 μM Ivacaftor during the 18-24 hours incubations was kept constant throughout the Ussing chamber measurement of the CFTR-mediated ISC to ensure compounds were present throughout the entire experiment.
as §1, with “K2HPO4,” for “K2HIPO4,”

A value given as a limit tells only on which side of the number the result lay.

T1 sequence (P13569 with tags, fused parts or gaps DEL508-508): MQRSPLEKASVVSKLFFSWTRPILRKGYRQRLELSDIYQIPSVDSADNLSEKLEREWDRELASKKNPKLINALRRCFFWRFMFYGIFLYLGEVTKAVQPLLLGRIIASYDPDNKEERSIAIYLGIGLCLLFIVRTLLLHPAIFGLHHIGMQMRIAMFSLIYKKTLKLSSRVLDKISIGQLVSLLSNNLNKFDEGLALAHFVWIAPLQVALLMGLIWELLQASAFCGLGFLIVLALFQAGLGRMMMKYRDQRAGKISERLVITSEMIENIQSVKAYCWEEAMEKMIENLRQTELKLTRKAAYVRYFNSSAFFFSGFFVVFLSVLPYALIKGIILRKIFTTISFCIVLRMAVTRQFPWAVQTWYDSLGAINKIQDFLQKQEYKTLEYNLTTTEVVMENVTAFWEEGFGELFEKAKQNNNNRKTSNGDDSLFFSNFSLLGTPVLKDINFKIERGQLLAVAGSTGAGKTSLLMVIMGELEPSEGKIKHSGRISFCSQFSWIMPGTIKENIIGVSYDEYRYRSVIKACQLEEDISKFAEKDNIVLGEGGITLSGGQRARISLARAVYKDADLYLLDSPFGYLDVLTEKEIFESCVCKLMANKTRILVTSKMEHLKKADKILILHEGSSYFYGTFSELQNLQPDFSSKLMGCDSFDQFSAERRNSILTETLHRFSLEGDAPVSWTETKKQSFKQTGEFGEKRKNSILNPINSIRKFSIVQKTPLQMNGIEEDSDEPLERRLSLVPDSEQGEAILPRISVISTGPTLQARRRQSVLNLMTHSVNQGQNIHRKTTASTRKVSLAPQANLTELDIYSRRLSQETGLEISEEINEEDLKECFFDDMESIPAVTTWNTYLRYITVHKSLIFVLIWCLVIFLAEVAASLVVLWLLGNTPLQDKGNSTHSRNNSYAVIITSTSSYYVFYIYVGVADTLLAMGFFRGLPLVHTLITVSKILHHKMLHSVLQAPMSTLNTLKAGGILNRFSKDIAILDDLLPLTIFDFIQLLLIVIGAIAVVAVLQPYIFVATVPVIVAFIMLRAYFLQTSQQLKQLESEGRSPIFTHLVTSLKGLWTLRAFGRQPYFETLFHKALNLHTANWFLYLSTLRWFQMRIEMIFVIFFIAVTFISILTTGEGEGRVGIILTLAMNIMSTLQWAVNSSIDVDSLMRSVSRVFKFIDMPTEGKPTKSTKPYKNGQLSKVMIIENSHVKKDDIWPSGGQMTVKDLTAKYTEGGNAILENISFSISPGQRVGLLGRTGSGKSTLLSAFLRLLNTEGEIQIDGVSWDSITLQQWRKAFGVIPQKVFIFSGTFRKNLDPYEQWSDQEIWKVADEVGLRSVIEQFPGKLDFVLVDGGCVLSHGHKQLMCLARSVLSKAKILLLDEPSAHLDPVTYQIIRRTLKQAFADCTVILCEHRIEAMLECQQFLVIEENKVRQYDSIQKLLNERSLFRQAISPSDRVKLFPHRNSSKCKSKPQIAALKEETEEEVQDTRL

As for `Cc1cccc(CC2CCCC2)c1-c1nc2nc(c1C)OC[C@@H](CC(C)(C)C)N(Cc1ncc(N3CCOCC3)cn1)C(=O)c1cccc(c1)S(=O)(=O)N2` (atropisomer, axis not shown) [Compound 281], the EC50 – broadly, the concentration at which the effect is half-maximal – is less than 1000 nM and the “HBE Max Activity” value was “+++ (+++ is >600%)”.
In the same order, the values of `Cc1cccc(CC2CCCCC2)c1-c1nc2nc(c1C)OC[C@@H](CC(C)(C)C)N(Cc1ncc(N(C)CC(C)(C)C)cn1)C(=O)c1cccc(c1)S(=O)(=O)N2` (atropisomer, axis not shown) [Compound 282] are 1000 to 3000 nM and “+++ (+++ is >600%)”.
For `CCc1cccc(C)c1-c1nc2nc(c1C)OC[C@@H](CC(C)(C)C)N(Cc1ccc(N3CCOCC3)cn1)C(=O)c1cccc(c1)S(=O)(=O)N2` (atropisomer, axis not shown) [Compound 286] the same measures were less than 1000 nM and “+++ (+++ is >600%)”.
In the same order, the values of `CCc1cccc(C)c1-c1nc2nc(c1C)OC[C@@H](CC(C)(C)C)N(Cc1ccc(N3CCOCC3)cn1)C(=O)c1cccc(c1)S(=O)(=O)N2` (atropisomer, axis not shown) [Compound 287] are less than 1000 nM and “+++ (+++ is >600%)”.
With `Cc1cccc(CC2CCCC2)c1-c1nc2nc(c1C)OC[C@@H](CC(C)(C)C)N(Cc1ccc(N3CCOCC3)cn1)C(=O)c1cccc(c1)S(=O)(=O)N2` (atropisomer, axis not shown) [Compound 288], the “HBE Activity at 10 μM” value was “+++ (+++ is >600%)”.
Turning to `Cc1cccc(CC2CCCC2)c1-c1nc2nc(c1C)OC[C@@H](CC(C)(C)C)N(Cc1ccc(N3CCOCC3)cn1)C(=O)c1cccc(c1)S(=O)(=O)N2` (atropisomer, axis not shown) [Compound 289], the EC50 was less than 1000 nM and the “HBE Max Activity” value is recorded as “+++ (+++ is >600%)”.
In the same order, the values of `COCCN(C)c1ccc(CN2C(=O)c3cccc(c3)S(=O)(=O)Nc3nc(c(C)c(-c4c(C)cccc4CC4CCCCC4)n3)OC[C@H]2CC(C)(C)C)nc1` (atropisomer, axis not shown) [Compound 290] are less than 1000 nM and “+++ (+++ is >600%)”.
On to `COCCN(C)c1ccc(CN2C(=O)c3cccc(c3)S(=O)(=O)Nc3nc(c(C)c(-c4c(C)cccc4CC(C)C)n3)OC[C@H]2CC(C)(C)C)nc1` (atropisomer, axis not shown) [Compound 292], for which the EC50 is less than 1000 nM and the “HBE Max Activity” value is given as “+++ (+++ is >600%)”.
As for `COCCN(C)c1cnc(CN2C(=O)c3cccc(c3)S(=O)(=O)Nc3nc(c(C)c(-c4c(C)cccc4CC(C)C)n3)OC[C@H]2CC(C)(C)C)nc1` (atropisomer, axis not shown) [Compound 293], the “HBE Activity at 10 μM” value was “+++ (+++ is >600%)”.
Consider `COCCN(C)c1cnc(CN2C(=O)c3cccc(c3)S(=O)(=O)Nc3nc(c(C)c(-c4c(C)cccc4CC(C)C)n3)OC[C@H]2CC(C)(C)C)nc1` (atropisomer, axis not shown) [Compound 294], for which the EC50 was less than 1000 nM and the “HBE Max Activity” value is recorded as “+++ (+++ is >600%)”.
On to `Cc1cccc(CC(C)C)c1-c1nc2nc(c1C)OC[C@@H](CC(C)(C)C)N(Cc1ncc(N3CCOCC3)cn1)C(=O)c1cccc(c1)S(=O)(=O)N2` (atropisomer, axis not shown) [Compound 295], for which the EC50 is less than 1000 nM and the “HBE Max Activity” value is recorded as “+++ (+++ is >600%)”.
For the molecule `Cc1cccc(CC(C)C)c1-c1nc2nc(c1C)OC[C@@H](CC(C)(C)C)N(Cc1ncc(N3CCOCC3)cn1)C(=O)c1cccc(c1)S(=O)(=O)N2` (atropisomer, axis not shown) [Compound 296], the EC50 is less than 1000 nM and the “HBE Max Activity” value is on record as “+++ (+++ is >600%)”.
As to `Cc1cccc(CC(C)C)c1-c1nc2nc(c1C)OC[C@@H](CC(C)(C)C)N(Cc1ccc(N3CCOCC3)cn1)C(=O)c1cccc(c1)S(=O)(=O)N2` (atropisomer, axis not shown) [Compound 297], the concentration giving a half-maximal response (EC50) is less than 1000 nM and the “HBE Max Activity” value is recorded as “+++ (+++ is >600%)”.
Turning to `Cc1cccc(CC(C)C)c1-c1nc2nc(c1C)OC[C@@H](CC(C)(C)C)N(Cc1ccc(N3CCOCC3)cn1)C(=O)c1cccc(c1)S(=O)(=O)N2` (atropisomer, axis not shown) [Compound 298], the EC50 is less than 1000 nM and the “HBE Max Activity” value was “+++ (+++ is >600%)”.
Consider `Cc1cccc(C(C)C)c1-c1nc2nc(c1C)OC[C@@H](CC(C)(C)C)N(Cc1ccc(N3CCOCC3)cn1)C(=O)c1cccc(c1)S(=O)(=O)N2` (atropisomer, axis not shown) [Compound 299], for which the EC50 was less than 1000 nM and the “HBE Max Activity” value is “+++ (+++ is >600%)”.
In the same order, the values of `Cc1cccc(C(C)C)c1-c1nc2nc(c1C)OC[C@@H](CC(C)(C)C)N(Cc1ccc(N3CCOCC3)cn1)C(=O)c1cccc(c1)S(=O)(=O)N2` (atropisomer, axis not shown) [Compound 300] are less than 1000 nM and “+++ (+++ is >600%)”.
In the same order, the values of `COc1ccc(CN2C(=O)c3cccc(c3)S(=O)(=O)Nc3nc(c(C)c(-c4c(C)cccc4CC4CCCCC4)n3)OC[C@H]2CC(C)(C)C)nc1` (atropisomer, axis not shown) [Compound 301] are less than 1000 nM and “+++ (+++ is >600%)”.
For the molecule `COc1ccc(CN2C(=O)c3cccc(c3)S(=O)(=O)Nc3nc(c(C)c(-c4c(C)cccc4CC4CCCCC4)n3)OC[C@H]2CC(C)(C)C)nc1` (atropisomer, axis not shown) [Compound 302], the half-maximal effective concentration (EC50) is less than 1000 nM and the “HBE Max Activity” value is given as “+++ (+++ is >600%)”.
In the same order, the values of `Cc1cccc(CC2CCCCC2)c1-c1nc2nc(c1C)OC[C@@H](CC(C)(C)C)N(Cc1ncc(N(C)C)cn1)C(=O)c1cccc(c1)S(=O)(=O)N2` (atropisomer, axis not shown) [Compound 303] are less than 1000 nM and “+++ (+++ is >600%)”.
`Cc1cccc(CC2CCCCC2)c1-c1nc2nc(c1C)OC[C@@H](CC(C)(C)C)N(Cc1ncc(N(C)C)cn1)C(=O)c1cccc(c1)S(=O)(=O)N2` (atropisomer, axis not shown) [Compound 304]: the concentration for a half-maximal effect (EC50) was less than 1000 nM and the “HBE Max Activity” value is reported as “+++ (+++ is >600%)”.
In the same order, the values of `Cc1cccc(CC2CCCCC2)c1-c1nc2nc(c1C)OC[C@@H](CC(C)(C)C)N(Cc1ncc(N3CCOCC3)cn1)C(=O)c1cccc(c1)S(=O)(=O)N2` (atropisomer, axis not shown) [Compound 305] are less than 1000 nM and “+++ (+++ is >600%)”.
For `Cc1cccc(CC2CCCCC2)c1-c1nc2nc(c1C)OC[C@@H](CC(C)(C)C)N(Cc1ncc(N3CCOCC3)cn1)C(=O)c1cccc(c1)S(=O)(=O)N2` (atropisomer, axis not shown) [Compound 306] the same measures were less than 1000 nM and “+++ (+++ is >600%)”.
Turning to `Cc1cccc(CC2CCCCC2)c1-c1nc2nc(c1C)OC[C@@H](CC(C)(C)C)N(Cc1ccc(N3CCCCC3)cn1)C(=O)c1cccc(c1)S(=O)(=O)N2` (atropisomer, axis not shown) [Compound 307], the half-maximal effective concentration (EC50) was less than 1000 nM and the “HBE Max Activity” value was “+++ (+++ is >600%)”.
In the same order, the values of `Cc1cccc(CC2CCCCC2)c1-c1nc2nc(c1C)OC[C@@H](CC(C)(C)C)N(Cc1ccc(N3CCCCC3)cn1)C(=O)c1cccc(c1)S(=O)(=O)N2` (atropisomer, axis not shown) [Compound 308] are less than 1000 nM and “+++ (+++ is >600%)”.
In the same order, the values of `Cc1cccc(CC2CCCCC2)c1-c1nc2nc(c1C)OC[C@@H](CC(C)(C)C)N(Cc1ncccc1N1CCOCC1)C(=O)c1cccc(c1)S(=O)(=O)N2` (atropisomer, axis not shown) [Compound 309] are less than 1000 nM and “+++ (+++ is >600%)”.
